Test results as given in patent publication US20250236841A1, “METHODS TO ENHANCE TUMOR IMMUNOGENICITY AND COMPOSITIONS FOR AUTOLOGOUS CANCER IMMUNOTHERAPEUTIC PRODUCTS USING MODIFIED TUMOR CELLS AND MODIFIED DENDRITIC CELLS” (AIVITA BIOMEDICAL, INC., priority 2017, published 2025).
Where a SMILES comes first, the peptide text is derived from it. The star is where a group is joined. Cbz = O=C(OCc1ccccc1)*; CH2F = FC*

Experiments:
Assay type in all cases: cell-based
[1] = test system: isolated live cancer cells; test: culture with caspase inhibitor (Example 6); settings: Z-VAD-fmk 5-50 μM throughout proliferation and augmentation phases
Protocol: Isolated live cancer cells are placed in tissue culture. The tissue culture medium is supplemented with the broad spectrum caspase inhibitor Z-VAD-fmk at a concentration of 5-50 μM. The caspase inhibitor is added at the initiation of cell culture and maintained throughout the proliferation and augmentation phases of culture.

[2] = test system: established ovarian tumor line; test: cell survival of ovarian tumor line culture exposed to proteasome inhibitor and/or caspase inhibitor
Protocol: To benefit from the increased antigen content that can be obtained through use of a proteasome inhibitor, but also avoid triggering apoptosis, the proteasome inhibitor can be used in conjunction with a caspase inhibitor. First, to find the concentration of the proteasome inhibitor that caused minimal cell death, a range of bortezomib dilutions were tested in vitro on an established ovarian tumor line after reaching 70-90% confluence. The cultures were maintained in a standard DMEM:F12 media with 5% FBS. Bortezomib was reconstituted in DMSO and added directly to the cultures in concentrations from 0.1 to 100 nM
A concentration of 20 μM was chosen for further experiments.
Then the sequential application of the caspase inhibitor and proteasome inhibitor was tested. The tumor cells were cultured in the presence of 20 μM caspase inhibitor Z-VAD-fmk for 24 hours and then the medium was exchanged for medium containing bortezomib and the cells culture for another 48 hours. Bortezomib was used at the lowest concentration of that induced cell death, 5 nM.
The simultaneous application of Bortezomib and Z-VAD-fmk was also tested using 1 nM Botezomib with either 1 or 20 μM Z-VAD-fmk.

[3] = test system: isolated live cancer cells; test: augmentation culture with histone deacetylase inhibitors (Example 2); settings: 0.01 mM to 10 mM each in the medium during augmentation phase
Protocol: Isolated live cancer cells are placed in tissue culture. During an augmentation phase, the tissue culture medium is supplemented with valproic acid or phenylbutyrate, or both, each at a concentration of 0.01 mM to 10 mM each. The level of histone acetylation, mRNA transcription, and protein expression, including expression of TAA, all increase.

[4] = test system: isolated live cancer cells; test: augmentation culture with DNA methyltransferase inhibitor (Example 3); settings: decitabine 100-500 nM throughout, or 1 μM-10 μM at beginning of augmentation phase
Protocol: Isolated live cancer cells are placed in tissue culture. The tissue culture medium is supplemented with decitabine from the beginning of the augmentation phase for not less than one hour and up to the entire augmentation phase depending on concentration. A concentration of 100-500 nM can be used throughout the augmentation phase of cultivation. Alternatively a higher concentration of 1 μM-10 μM can be used at beginning of the augmentation phase and then removed or reduced to the lower concentration.

[5] = test system: isolated live cancer cells; test: augmentation culture with proteasome inhibitors (Example 4); settings: lactacystin 0.1-1 μM, epoxomicin 1-2 μM, and/or HMB 10-150 μg/mL; at least the last 24 hours prior to harvest
Protocol: Isolated live cancer cells are placed in tissue culture. The tissue culture medium is supplemented with lactacystin at a concentration of 0.1-1 μM, epoxomicin at a concentration of 1-2 μM, and/or HMB at a concentration of 10-150 μg/mL. The inhibitor can be present throughout the augmentation phase of culture, or a portion thereof, but at least the last 24 hours prior to harvest. Doses in the lower end of the stated ranges are appropriate for longer term exposure. Doses at the high end of the state ranges can be used in the last 24 hours of cultivation. The content of protein (including normal, mutated and misfolded proteins) in the cancer cells is increased.

[6] = test system: isolated live cancer cells; test: depletion of Wnt signaling ligands (Example 7); settings: beta-methyl-cyclodextrin 0.5-20 mM, one half to 3 hours prior to the end of the augmentation phase
Protocol: Isolated live cancer cells are placed in tissue culture. One half to 3 hours prior to the end of the augmentation phase and preparation for DC loading, the tissue culture medium is supplemented with beta-methyl-cyclodextrin at a concentration of 0.5-20 mM. Cholesterol and Wnt ligands are depleted from the plasma membrane of the cancer cells.

MUC1 = test: antibody labeling and epifluorescence imaging of protein content, MUC1; settings: bortezomib 0.1 nM to 1.0 nM, without caspase inhibitor (FIGS. 6 and 7)
From the text: (§1) To evaluate protein content, we queried two targets that are commonly found in cancers: CA125, which is typically specific for ovarian cancer, and MUC1, which is common in many types of cancer (for example, colon, breast, ovarian, lung and pancreatic). The proteins were labeled using antibodies conjugated with Alexa Fluor 488 (green; anti-MUC1) or 594 (red; anti-CA125). The cells were imaged with an epifluorescence microscope (Nikon) with pre-set parameters for exposure and magnification.

CA125 = test: antibody labeling and epifluorescence imaging of protein content, CA125; settings: bortezomib 0.1 nM to 1.0 nM, without caspase inhibitor (FIGS. 6 and 7)
From the text: as §1

Q: With COC(=O)C[C@H](NC(=O)[C@H](C)NC(=O)[C@@H](NC(=O)OCc1ccccc1)C(C)C)C(=O)CF [Z-VAD-fmk] (Cbz-Val-Ala-Asp(OMe)-CH2F) as the molecule, how does the “accumulation of proteins, including TAA” value [1] read?
A: accumulate to higher levels than in untreated cultures

Q: And the “viability of the cultured cancer cells” value [1]?
A: maintaining a high degree of viability

Q: And the “effect on cell survival” value ([2]; Z-VAD-fmk 10-100 μM, without an apoptotic challenge)?
A: did not have an effect on cell survival

Q: For CCCC(CCC)C(=O)O [valproic acid], which “level of histone acetylation, mRNA transcription, and protein expression, including expression of TAA” value [3] is on record?
A: increase

Q: Nc1ncn([C@H]2C[C@H](O)[C@@H](CO)O2)c(=O)n1 [decitabine, 5-aza-2′-deoxycytidine] was tested. Which “expression of silenced germ line and tumor-specific antigens” value [4] did it give?
A: increased and becomes more uniform

Q: And the hypermethylation [4]?
A: reversed

Q: For CC(=O)N[C@@H](CSC(=O)[C@]1([C@@H](O)C(C)C)NC(=O)[C@H](C)[C@@H]1O)C(=O)O [lactacystin], which “content of protein (including normal, mutated and misfolded proteins) in the cancer cells” value [5] is on record?
A: increased

Q: With “methyl-β-cyclodextrin [beta-methyl-cyclodextrin]” as the molecule, how does the “cholesterol and Wnt ligands of the plasma membrane of the cancer cells” value [6] read?
A: depleted

Q: With CC[C@H](C)[C@H](NC(=O)[C@H]([C@@H](C)CC)N(C)C(C)=O)C(=O)N[C@H](C(=O)N[C@@H](CC(C)C)C(=O)[C@@]1(C)CO1)[C@@H](C)O [epoxomicin] as the molecule, how does the “content of protein (including normal, mutated and misfolded proteins) in the cancer cells” value [5] read?
A: increased

Q: How did the “content of protein (including normal, mutated and misfolded proteins) in the cancer cells” value [5] turn out when CC(C)(O)CC(=O)O [HMB, beta-hydroxy beta-methylbutyrate] was run?
A: increased

Q: What does the source list for CC(C)C[C@H](NC(=O)[C@H](Cc1ccccc1)NC(=O)c1cnccn1)B(O)O [bortezomib]?
A: abundance and content of MUC1 (mean fluorescence intensity, sum of labeled pixels) (MUC1): increase; effect on survival ([2]; below 1 nM bortezomib): did not have effect on survival; lowest concentration that induced cell death ([2]; bortezomib alone): 5 nM; cell survival ([2]; concentrations above 5 nM bortezomib, within 24 hours, DMEM:F12 with 5% FBS): all cells died; cell survival ([2]; from 5 nM to 1 nM bortezomib): cell survived proportional with decreasing concentration; abundance and content of CA125 (mean fluorescence intensity, sum of labeled pixels) (CA125): increase
